In assay [1] the test system is C3a production. As to the kind of experiment: Inhibition of C3a production in human serum (aggregated IgG, RIA). The settings on record: human serum, concentration inhibiting C3a production 50% relative to control. The class given is biochemical. The procedure: (§1) The ability to inhibit complement was tested by assaying for specific inhibition of C3a and C5a production. For all experiments, a single human serum pool, to be used as a source of complement, was aliquoted and stored frozen at -70° C. Human IgG was heat-aggregated, aliquoted, and stored frozen at -70° C. For each experiment, serum aliquots were equilibrated at 37° C. with varying concentrations of the compounds tested. The classical complement pathway was initiated by the addition of aggregated human IgG. Control samples containing no IgG were always included. After a fixed reaction time of 10 minutes (determined in an earlier time-course study to provide a convenient time interval during which the production of C5a or C3a is nearly complete, i.e., greater than 90%), the levels of the released complement peptides (C5a or C3a) were determined by radioimmunoassay using commercially available radioimmunoassay (RIA) kits (C5a RIA, UpJohn Cat. No. 3250-02; C3a RIA, UpJohn Cat. No. 3245-01; C5a RIA, Amersham Cat. No. RPA.520; C3a RIA, Amersham RPA.518).
(§2) Since a competitive immunoassay was used, complement peptide (C5a and C3a) concentrations varied inversely with the counts. The Counts Bound (CB) for a sample was defined as the total counts (in counts per minute, cpm) measured in the pellet minus the counts measured in a nonspecific binding (NSB) control. The NSB control was a sample containing only tracer peptide (^125 I-labelled) and second precipitating antiserum; it contained no C5a- or C3a-specific antiserum.
(§3) The y-axis in FIG. 2 represents the fraction inhibition. The fraction inhibition is equal to the Counts Bound (CB) for a "sample," less the CB in the "sample with no added compound," divided by the CB for the "no IgG control" less the CB in the "sample with no added compound." [formula]
(§4) FIG. 2 is representative of the data plots obtained from the assays described above.

Assay [2] relates to human complement. As to the kind of experiment: Inhibition of complement-mediated hemolysis, human serum, sensitized sheep erythrocytes. The class given is biochemical. How it is done:
The ability to inhibit complement was also tested by assaying for inhibition of complement-mediated red cell lysis (hemolysis). The inhibition of hemolysis was determined as a function of compound concentration. The compounds to be tested were diluted in 0.1M Hepes buffer (0.15N NaCl, pH 7.4), and 50 μl were added to each well of a V-bottom microtiter plate. Human serum, used as the complement source, was diluted 1 to 500 in Hepes buffer, and 50 μl were added to each well. Next, commercially available sheep erythrocytes with anti-sheep antibody (Diamedix Cat. No. 789-001) were used as received and added at 100 μl/well to initiate the complement pathway leading to hemolysis. The plate was incubated for 60 minutes at 37° C. and then centrifuged at 500×g for 10 minutes. The supernatants were removed and placed in a flat-bottom microtiter plate. The extent of hemolysis was measured as a function of the sample absorbance at 410 nm. The maximal absorbance (corresponding to maximal hemolysis), Amax, was obtained from the absorbance value of an erythrocyte sample containing only human serum, AS, less the absorbance of a sample containing only the red cells, A0. Thus, Amax =AS -A0. The difference between the absorbance of an erythrocyte sample containing both human serum and inhibitive compound, and the absorbance of a cell sample containing inhibitive compound only, was defined as Asample. The inhibition, IH, was expressed as the fraction (Amax -Asample)/Amax, and IH50 was defined as the concentration of inhibitive compound required to produce a value of IH=1/2.
The 4 substituted spirobenzofuran compounds of example 7 and the disubstituted spirobenzofuran compounds of example 8 were tested for their capacity to inhibit complement-mediated lysis of sheep red blood cells (SRBC) as described in Section 6.6.2 supra with the modification that the human serum used as the complement source was diluted to 1 to 100 in Hepes buffer, instead of […]. The results of the hemolysis assays are shown in FIG. 8 and Tables XI and XII.

In assay [3] the test system is C5a production. As to the kind of experiment: Inhibition of C5a production in human serum (aggregated IgG, RIA). The assay is classed as biochemical. As to conditions: concentration inhibiting C5a production 50% relative to control. How it is done:
as §1, §2, §3, §4

For assay [4], the system named is human peripheral blood lymphocytes (PBL). As to the kind of experiment: Inhibition of proliferation of peripheral blood lymphocytes, 3H-thymidine incorporation. The settings on record: Lymphocyte, Table IX, 72 h. The class given is cell-based. The procedure:
The proliferation of human peripheral blood lymphocytes (PBL) in response to phytohemagglutinin (PHA, Well-come) or anti-CD3 monoclonal antibody (OKT-3, Ortho) was assessed by the incorporation of ^3 H-thymidine. Compound 11a was diluted in culture media to the desired concentrations, human PBL were added to a final concentration of 10^6 cells/ml, and then either PHA (Wellcome) or anti-CD3 (OKT3, Ortho) antibody (final concentration, […]) was added to initiate proliferation. The final volume per sample was 100 μl. The cells were incubated for 72 hours after stimulation, pulsed with 1 μCi ^3 H-thymidine per sample for 4 hours, harvested, and counted in a scintillation counter. […] Because cell viability was unaffected by the presence of 11a (see supra), the inhibition apparently was not due to cytotoxic effects.

The mark [5] stands for this setting: Table VII, human serum, read-out: IHO50.
Setting [6] is: Table XI, human serum diluted 1 to 100, read-out: IH50 Mean.
[7] abbreviates: Table XII, human serum diluted 1 to 100, read-out: IH50 Mean.
Where [8] appears, read: PHA stimulation, read-out: IP50 PHA-stimulated PBL.
Setting [9] is: anti-CD3 (OKT-3) stimulation, read-out: IP50 OKT-3-stimulated PBL.

Molecules are shown by their SMILES. Where a name gives a salt, the structure may show the parent alone. Read-outs that look alike come from different tables or passages of the source.

Regarding `COc1ccc(C(=O)O)c(O)c1CC1=CCCCC1` [Compound 12a, 3-(1'-CYCLOHEXENYL)METHYL-2-HYDROXY-4-METHOXYBENZOIC ACID], the IC50 was found to be 13000 µM in assay [1], 2100 µM in assay [2] (setting [5]) and 8000 µM in assay [3].

Turning to `COc1cc(C(=O)O)c(C(=O)O)c2c1CC1(CCCCC1)O2` [Compound 66, 6,7-DICARBOXYL-4-METHOXYSPIRO [BENZOFURAN-2(3H)-CYCLOHEXANE]], the IC50 in assay [2] (setting [6]) was 800 µM.

As for `O=C(O)c1ccc(Oc2cc(C(=O)O)cc3c2CC2(CCCCC2)O3)cc1` [Compound 55i, 6-CARBOXYL-4-P-CARBOXYLPHENOXYSPIRO[BENZOFURAN-2(3H)-CYCLOHEXANE]], the IC50 in assay [2] (setting [7]) amounted to 1450 µM.

In the case of `COc1cc(C(=O)O)cc(O)c1CC1=CCCCC1` [Compound 15a], the IC50 was determined as 820 µM in assay [2] (setting [5]), 700 µM in assay [4] (setting [8]) and 400 µM in assay [4] (setting [9]).

Regarding `O=C(O)c1cc(OCCO)c2c(c1)OC1(CCCCC1)C2` [Compound 55d, 6-CARBOXYL-4-(2'-HYDROXYETHYLOXYSPIRO[BENZOFURAN-2(3H)-CYCLOHEXANE]], the IC50 in assay [2] (setting [7]) was more than 2800 µM.

`CCOc1cc(C(=O)O)cc2c1CC1(CCCCC1)O2` [Compound 44b, 6-CARBOXYLATE-4-ETHOXY-SPIRO [BENZOFURAN-2(3H)-CYCLOHEXANE] SODIUM SALT]: the IC50 in assay [2] (setting [7]) turned out to be 580 µM.

Regarding `O=C(O)c1ccc2c(c1)OC1(CCCCC1)C2` [Compound 55g, 6-CARBOXYLSPIRO[BENZOFURAN-2(3H)-CYCLOHEXANE]], the IC50 in assay [2] (setting [7]) amounted to 2320 µM.

On to `O=C(O)c1cc(Oc2ccccc2)c2c(c1)OC1(CCCCC1)C2` [Compound 55c, 6-CARBOXYL-4-PHENOXYSPIRO[BENZOFURAN-2(3H)-CYCLOHEXANE]], for which the “effectiveness in inhibiting complement-mediated hemolysis compared with K76COOH” value in assay [2] is given as “more effective”. For the same compound, the IC50 in assay [2] (setting [7]) was 280 µM.

On to `CC1=CCC(C2(C)Cc3c(O)ccc(C(=O)O)c3O2)CC1` (single isomer, unassigned; (+)) [(+)-23a], for which the IC50 in assay [1] is more than 14000 µM; in assay [2] (setting [5]) it was 2100 µM; in assay [3], more than 14000 µM.

Take `O=C(O)c1cc(OCc2ccccc2)c2c(c1)OC1(CCCCC1)C2` [Compound 55a, 4-BENZYLOXY-6-CARBOXYLSPIRO[BENZOFURAN-2(3H)-CYCLOHEXANE]]: in assay [2] (setting [7]), the IC50 was determined as 2530 µM.

`COc1ccc(C(=O)O)c2c1CC(C)(C1CC=C(C)CC1)O2` (single isomer, unassigned; (-)) [(-)-20a]: the IC50 in assay [1] was 11000 µM; in assay [2] (setting [5]), 380 µM; in assay [3] it was 6000 µM.

With `CC1=CCC(C2(C)Cc3c(O)ccc(C(=O)O)c3O2)CC1` (single isomer, unassigned; (-)) [(-)-23a], the IC50 came out at 2400 µM in assay [2] (setting [5]), 2800 µM in assay [4] (setting [8]) and 2000 µM in assay [4] (setting [9]).

Regarding `COc1cc(C(=O)O)cc2c1CC1(CCCCC1)O2` [Compound 30a], in assay [2] (setting [5]), the IC50 was determined as 530 µM.

As to `COc1ccc(C=O)c(O)c1CC1=CCCCC1` [Compound 12b, 3-(1'-CYCLOHEXENYL)METHYL-2-HYDROXY-4-METHOXYBENZALDEHYDE], the figures for the IC50 in assay [1] and in assay [3] were 18000 µM and 9000 µM, respectively.

For the compound `COc1cc(C=O)c(C(=O)O)c2c1CC1(CCCCC1)O2` [Compound 62, 7-CARBOXY-6-FORMYL-4-METHOXY PIRO[BENXOFURAN-2 (DH)-CYCLOHEXANE], the IC50 in assay [2] (setting [6]) stood at 1670 µM.

As to `O=C(O)c1ccc(O)c2c1OC1(CCCCC1)C2` [Compound 14a], in assay [2] (setting [5]), the IC50 is 3000 µM.

`O=C(O)c1cc(O)c2c(c1)OC1(CCCCC1)C2` [Compound 31a]: the IC50 in assay [2] (setting [5]) and in assay [2] (setting [7]) was 1450 µM throughout.

As for `Nc1ccc(Oc2cc(C(=O)O)cc3c2CC2(CCCCC2)O3)cc1` [Compound 55h, 4p-aminophenoxy-carboxyspiro[benzofuran2(3H)-cyclohexane], in assay [2], the “effectiveness in inhibiting complement-mediated hemolysis compared with K76COOH” value is given as “more effective”. Besides, the IC50 in assay [2] (setting [7]) worked out at 320 µM.

Turning to `CCCCOc1cc(C(=O)O)cc2c1CC1(CCCCC1)O2` [Compound 55b, 4-N-BUTYLOXY-6-CARBOXYLSPIRO[BENZOFURAN-2(3H)-CYCLOHEXANE]], the IC50 in assay [2] (setting [7]) was 430 µM.

With `COc1ccc(C(=O)O)c2c1CC(C)(C1CC=C(C)CC1)O2` (single isomer, unassigned; (+)) [(+)-20a], the IC50 is more than 14000 µM in assay [1]; 680 µM in assay [2] (setting [5]); 8000 µM in assay [3]; 2100 µM in assay [4] (setting [8]); 1700 µM in assay [4] (setting [9]).

`O=C(O)c1cc(Oc2ccc([N+](=O)[O-])cc2)c2c(c1)OC1(CCCCC1)C2` [Compound 55e, 6-CARBOXYL-4-P-NITROPHENOXYSPIRO [BENZOFURAN-2(3H)-CYCLOHEXANE]]: the “effectiveness in inhibiting complement-mediated hemolysis compared with K76COOH” value in assay [2] was “more effective”. Moreover, in assay [2] (setting [7]), the IC50 was 305 µM.

The record behind these values is patent publication US5808109A, “Compounds that inhibit complement and/or suppress immune activity” (T Cell Sciences, Inc., priority 1995, dated 1998).
